As usually defined, the inhibition is the relative decrease from the control value, in per cent. Higher therefore signals strong suppression. Broadly, the IC50 is the concentration that inhibits the measured activity by half.

Counter-ions that a name gives are not always drawn. Like-named read-outs stand apart in the source and are kept apart here.

Our source for the inhibition and IC50 values is publication PMC12383815 (Biomolecules, 2025).

Experiment [1] addresses T1, shikimate dehydrogenase (SaSDH) (Staphylococcus aureus, UniProt Q6GGA5).
T1 construct: gene aroE
T1 sequence (Q6GGA5 1-268): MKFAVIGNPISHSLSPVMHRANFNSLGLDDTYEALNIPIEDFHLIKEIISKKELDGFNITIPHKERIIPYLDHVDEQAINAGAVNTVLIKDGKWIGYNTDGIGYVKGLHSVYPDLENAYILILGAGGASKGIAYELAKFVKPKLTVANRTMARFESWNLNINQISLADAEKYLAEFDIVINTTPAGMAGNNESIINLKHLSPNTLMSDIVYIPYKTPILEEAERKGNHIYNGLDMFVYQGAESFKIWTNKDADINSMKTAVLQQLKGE
The experiment can be described thus: biochemical. Further details: SaSDH enzyme activity inhibition screening at 500 uM, 10% DMSO. The procedure:
The inhibition percentage was determined by measuring enzyme activity under the conditions previously described by adding each compound from an in-house natural product derivative chemical library (40 compounds) to the reaction mixture at quantities of 500 μM; these compounds had been previously dissolved in Dimethyl Sulfoxide (DMSO), keeping 10% DMSO as final concentration. The percentage inhibition was calculated by adjusting the data from the following equation [33]: Inhibition %=A0−A1/A0 ×100 where the following definitions are used: In the search for new SaSDH inhibitors, an in-house chemical library of 40 natural product derivatives was screened against SaSDH activity. Our findings indicate that among the 40 molecules evaluated, the compounds phloridzin (93% of inhibition), rutin (87% of inhibition), and caffeic acid (70% of inhibition) inhibited SaSDH using a 500 µM concentration.

In experiment [2] the target is T2, shikimate dehydrogenase (SaSDH) (Staphylococcus aureus, UniProt Q6GGA5).
T2 construct: gene aroE
The experiment can be described thus: recombinant enzyme activity, NADPH formation at […] nm, dose-response; progress-curve kinetics. The experiment is classed as biochemical.

`Cn1ccnc1S(=O)(=O)Cl` [1-Methylimidazole-2-sulfonyl chloride] showed an inhibition at 500 µM in experiment [1] of 13%. The compound `O=Cc1c[nH]c2c1ccc1ccccc12` [1H-Benzo[g]indole-3-carboxaldehyde] showed an inhibition at 500 µM in experiment [1] of 19%.

`Clc1ccnc(Cl)c1` [2,4-Dichloropyridine] gave an inhibition at 500 µM in experiment [1] of 19%. The compound `Nc1nc(-c2ccc3c(c2)CCCC3)cs1` [2-Amino-4-(5,6,7,8-tetrahydronaphthalen-2-yl)thiazole] registered an inhibition at 500 µM in experiment [1] of 8%. The compound `Nc1ccc(Br)cn1` [2-Amino-5-bromopyridine] registered an inhibition at 500 µM in experiment [1] of 8%. On the same count and under the same terms, then `N#Cc1cnc(N)s1` [2-Aminothiazole-5-carbonitrile], with 17%; and `Brc1nc2ccccc2[nH]1` [2-Bromo-1H-benzimidazole], with 10%; and `Fc1ccc(Cl)nc1` [2-Chloro-5-fluoropyridine], with 18%. `O=C1CNCCN1` [2-Oxopiperazine] had an inhibition at 500 µM in experiment [1] of 13%.

In the case of `C1SCC2OC12` (centres unmarked) [3,4-Epoxy-tetrahydrothiophene], the inhibition at 500 µM in experiment [1] came to 9%. On the same count and under the same terms, then `COc1cccc(C(=O)O)c1` [3-Methoxybenzoic acid], with 2%; and `Cc1ncc(CO)c(C)c1O` [4-Deoxypyridoxine hydrochloride], with 12%; and `FC(F)(F)c1ccc(Br)cn1` [5-Bromo-2-(trifluoromethyl)pyridine], with 9%. On the same count and under the same terms, the value for `O=c1[nH]cc(Br)cc1[N+](=O)[O-]` [5-Bromo-2-hydroxy-3-nitropyridine] was 18%. In experiment [1], `O=C(Cl)c1nc2ccccc2s1` [Benzothiazole-2-carbonyl chloride] yielded an inhibition at 500 µM of 14%.

Consider `O=C(O)/C=C/c1ccc(O)c(O)c1` [Caffeic acid], for which the half-inhibitory concentration (IC50) in experiment [2] was 240 µM. On to `COC(=O)c1nc[nH]c1C(=O)OC` [Dimethyl imidazole-4,5-dicarboxylate], for which the inhibition at 500 µM in experiment [1] was determined as 18%.

As to `COc1ccc(-c2coc3cc(O)ccc3c2=O)cc1` [Formononetin], 500 µM produced 13% inhibition in experiment [1].

Regarding `O=C1O[C@H]([C@@H](O)CO)C(O)=C1O` [L-Ascorbic acid], the inhibition at 500 µM in experiment [1] was 4.5%. Consider `CC(C)=CCC1=C(O)C(=O)c2ccccc2C1=O` [Lapachol], for which the inhibition at 500 µM in experiment [1] is 6%. The same measure, in the same setting: the value for `COc1cc(C(=O)OCCCCNC(=N)N)cc(OC)c1O` [Leonurine] was 13%. Still for that read-out and setting: then `CC1=CC(=O)c2ccccc2C1=O` [Menadione], with 17%.

`COC(=O)c1ccc(OC)cc1O` [Methyl 4-methoxysalicylate]: testing at 500 µM in experiment [1] gave an inhibition of 10%. Same read-out and setting: then `NC(=O)c1cccnc1` [Nicotinamide], with 5%; and `O=C(O)c1cccnc1` [Nicotinic acid], with 20%. As to `O=C(CCc1ccc(O)cc1)c1c(O)cc(O)cc1O[C@@H]1O[C@H](CO)[C@@H](O)[C@H](O)[C@H]1O` [Phloridzin], the IC50 in experiment [2] was found to be 140 µM. The compound `Cc1ncc(CO)c(CO)c1O` [Pyridoxine] yielded an inhibition at 500 µM in experiment [1] of 28%. Consider `C[C@@H]1O[C@@H](OC[C@H]2O[C@@H](Oc3c(-c4ccc(O)c(O)c4)oc4cc(O)cc(O)c4c3=O)[C@H](O)[C@@H](O)[C@@H]2O)[C@H](O)[C@H](O)[C@H]1O` [Rutin], for which the half-inhibitory concentration (IC50) in experiment [2] (read-out: IC50) amounted to 165 µM.

The compound `OC[C@H]1O[C@@H](OCCc2ccc(O)cc2)[C@H](O)[C@@H](O)[C@@H]1O` [Salidroside] showed an inhibition at 500 µM in experiment [1] of 27%.
